# Changes are numbered by the printed parent chain. Values joined by “and” are separate entries in the source; they are usually repeats but may differ in a detail not shown here. Identical values can stand only once.
# Experiments:
# Assay type in all cases: cell-based
# [1] = target: T1, B/KR(G810S) cells, KIF5B-RET G810S (Homo sapiens, UniProt P07949+P33176, G810S); assay: Cell viability assay (CellTiter-Glo, 3 days) in B/KR(G810S) cells
# T1 construct: FLAG; expressed in transfected cells; host or cells: BaF3
# T1 sequence (P07949 713-1063 G810S limits assumed): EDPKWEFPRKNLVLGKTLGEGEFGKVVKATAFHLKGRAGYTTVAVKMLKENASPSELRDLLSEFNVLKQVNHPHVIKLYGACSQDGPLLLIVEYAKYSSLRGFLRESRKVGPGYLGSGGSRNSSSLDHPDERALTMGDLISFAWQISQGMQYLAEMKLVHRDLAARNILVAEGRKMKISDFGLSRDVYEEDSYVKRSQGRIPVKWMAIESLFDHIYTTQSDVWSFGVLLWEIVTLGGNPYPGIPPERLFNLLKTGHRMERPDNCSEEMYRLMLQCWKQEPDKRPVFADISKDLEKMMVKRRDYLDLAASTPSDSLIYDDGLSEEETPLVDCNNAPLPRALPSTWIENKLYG
# Description: (§1) BaF3 cell lines expressing a flag-tagged KIF5B-RET (B/KR) and the KIF5B-RET containing G810C, G810R, G810S, V804M, V804L mutations were as reported.[8,13,17,21–23] […] Infected cells were cultured for two weeks, and cells with high GFP intensity were sorted into a 96-well plate (1 cell/well). After the expansion of growing cell lines, they were screened for a high level of luciferase activity by luminescence imaging after exposure to D-luciferin. IMR-90 cells were from ATCC.
# (§2) The TEL-VEGFR2 cDNA was then subcloned into pLentP lentiviral vector.[21] and BaF3/TEL-VEGFR2 (B/TV) cells were generated by infecting BaF3 cells with the lentiviral TEL-VEGFR2 as described. Cell viability assay was performed using CellTiter-Glo reagent (G7573, Promega, Madison, WI, USA) after 3 days of drug treatment as described for BaF3-derived cells and 5 days for IMR-90 cells.
# [2] = target: T2, B/KR(G810C) cells, KIF5B-RET G810C (Homo sapiens, UniProt P07949+P33176, G810C); assay: Cell viability assay (CellTiter-Glo, 3 days) in B/KR(G810C) cells
# T2 construct: FLAG; expressed in transfected cells; host or cells: BaF3
# T2 sequence (P07949 713-1063 G810C limits assumed): T1 sequence (P07949 713-1063 G810S limits assumed) with S98C
# Description: as §1, §2
# B/KR(G810C/R/S) cells = assay: Cell viability assay, RET solvent-front mutants stated jointly; conditions: read-out: IC50s for B/KR(G810C/R/S) cells; stated jointly for G810C, G810R and G810S
# Description: as §1, §2
# [3] = target: T3, B/KR(V804L) cells, KIF5B-RET V804L (Homo sapiens, UniProt P07949+P33176, V804L); assay: Cell viability assay (CellTiter-Glo, 3 days) in B/KR(V804L) cells
# T3 construct: FLAG; expressed in transfected cells; host or cells: BaF3
# T3 sequence (P07949 713-1063 V804L limits assumed): T1 sequence (P07949 713-1063 G810S limits assumed) with V92L, S98G
# Description: as §1, §2
# [4] = test system: BaF3/TEL-VEGFR2 (B/TV) cells; assay: Cell viability assay (CellTiter-Glo, 3 days) in B/TV cells; conditions: ratio of B/TV IC50 to B/KR WT IC50
# Description: as §2
# [5] = target: T4, BaF3/TEL-VEGFR2 (B/TV) cells (Homo sapiens, UniProt P35968+P41212); assay: as above; conditions: TEL-VEGFR2-dependent BaF3 cells, 3 days; read-out: IC50 B/TV WT
# T4 construct: fused to VEGFR2 (KDR) amino acids 807–1356; TEL (ETV6) amino acids 1–336 (N-terminal fusion partner); FLAG; expressed in transfected cells; host or cells: BaF3 (lentiviral pLentP TEL-VEGFR2)
# T4 sequence (P41212+P35968 fused): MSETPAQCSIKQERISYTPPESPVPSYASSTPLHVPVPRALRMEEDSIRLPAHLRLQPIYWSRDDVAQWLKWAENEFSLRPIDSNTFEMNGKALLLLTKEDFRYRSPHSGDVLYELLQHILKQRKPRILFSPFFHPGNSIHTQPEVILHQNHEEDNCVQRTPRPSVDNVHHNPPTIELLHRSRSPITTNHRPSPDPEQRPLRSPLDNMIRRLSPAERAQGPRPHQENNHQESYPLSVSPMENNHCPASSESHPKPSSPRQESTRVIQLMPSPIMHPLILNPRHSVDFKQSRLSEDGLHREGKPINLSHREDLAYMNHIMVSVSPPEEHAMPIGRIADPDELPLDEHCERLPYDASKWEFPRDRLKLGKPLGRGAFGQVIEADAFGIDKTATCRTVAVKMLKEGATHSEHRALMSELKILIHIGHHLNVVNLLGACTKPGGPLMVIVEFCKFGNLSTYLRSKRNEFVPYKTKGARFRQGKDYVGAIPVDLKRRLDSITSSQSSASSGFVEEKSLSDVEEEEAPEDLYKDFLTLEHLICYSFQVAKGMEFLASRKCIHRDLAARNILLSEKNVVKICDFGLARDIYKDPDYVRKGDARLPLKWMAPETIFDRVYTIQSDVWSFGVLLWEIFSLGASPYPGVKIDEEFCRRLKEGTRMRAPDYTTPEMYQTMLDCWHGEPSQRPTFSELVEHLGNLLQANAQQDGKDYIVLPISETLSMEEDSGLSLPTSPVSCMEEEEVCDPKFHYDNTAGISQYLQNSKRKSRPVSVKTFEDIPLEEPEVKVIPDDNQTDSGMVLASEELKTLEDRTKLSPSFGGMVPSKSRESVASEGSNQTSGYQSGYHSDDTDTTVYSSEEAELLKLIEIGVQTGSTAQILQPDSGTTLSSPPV
# Description: as §2
# [6] = test system: KIF5B-RET autophosphorylation in B/KR and mutant cells; assay: Immunoblotting analysis of cell lysates; conditions: Fig. S1A
# From the text: Figure S1. Immunoblotting analyses of cell lysates.
# (A) Immunoblotting analysis of compounds on inhibition of KR or its mutant kinase activity and
# induction of apoptosis in B/KR and mutant cells. (B) Immunoblotting analysis of HSN748-treated
# (1 picture or pasted object on this page, not shown here)
# [7] = target: T5, B/KR(V804M) cells, KIF5B-RET V804M (Homo sapiens, UniProt P07949+P33176, V804M); assay: Cell viability assay (CellTiter-Glo, 3 days) in B/KR(V804M) cells
# T5 construct: FLAG; expressed in transfected cells; host or cells: BaF3
# T5 sequence (P07949 713-1063 V804M limits assumed): T1 sequence (P07949 713-1063 G810S limits assumed) with V92M, S98G
# Description: as §1, §2
Compound,IC50 [1] [µM],IC50 [2] [µM],IC50 (B/KR(G810C/R/S) cells) [µM],IC50 [3],VEGFR2/RET (fold) [4] [fold],IC50 [5] [µM],KIF5B-RET autophosphorylation and apoptosis (immunoblotting) [6],IC50 [7]
CN1CCN(Cc2ccc(NC(=O)c3cncc(C#Cc4cnc5cccnn45)c3)cc2C(F)(F)F)CC1 [HSN748],0.0139 ± 0.00032,0.00793 ± 0.00033,< 0.033,0.055 µM and 0.0557 µM,1.81,0.00734 ± 9e-05,inhibit KIF5B-RET autophosphorylation and induce apoptosis at low nanomolar concentrations,0.088 µM and 0.0882 µM
"CCOc1ccc2ncc(C#Cc3cncc(C(=O)Nc4ccc(CN5CCN(C)CC5)c(C(F)(F)F)c4)c3)n2n1 [HSND14, 5-((6-Ethoxyimidazo[1,2-b]pyridazin-3-yl)ethynyl)-N-(4-((4-methylpiperazin-1-yl)methyl)-3-(trifluoromethyl)phenyl)nicotinamide]",0.00521 ± 0.00015,0.0159 ± 0.00072,< 0.033,0.03 ± 0.0012 µM,1.71,0.00688 ± 0.00015,inhibit KIF5B-RET autophosphorylation and induce apoptosis at low nanomolar concentrations,0.02 ± 0.00089 µM
"Cc1n[nH]c2ncc(C#Cc3cncc(C(=O)Nc4ccc(CN5CCN(C)CC5)c(C(F)(F)F)c4)c3)cc12 [HSND19, 5-((3-Methyl-1H-pyrazolo[3,4-b]pyridin-5-yl)ethynyl)-N-(4-((4-methylpiperazin-1-yl)methyl)-3-(trifluoromethyl)phenyl)nicotinamide]",0.004 ± 0.00016,0.00908 ± 0.00163,< 0.033,0.0206 ± 0.00222 µM,2.85,0.00556 ± 0.00111,inhibit KIF5B-RET autophosphorylation and induce apoptosis at low nanomolar concentrations,0.00652 ± 0.00045 µM

# Source: PMC12147034, “Identification of alkynyl nicotinamide HSN748 as a RET solvent-front mutant inhibitor with intracranial efficacy” (RSC Medicinal Chemistry, 2025)
